According to paper PMC11995503 (Molecular Cancer, 2025):

Assays:
[1] = system: KDR/VEGFR2; experiment: KDR inhibition; format: biochemical
[2] = life-threatening side effects; cited from earlier work
[3] = system: BP-CML; details: BP-CML cohort, cited from earlier work

## Cc1ccc(C(=O)Nc2ccc(CN3CCN(C)CC3)c(C(F)(F)F)c2)cc1C#Cc1cnc2cccnn12 [Ponatinib]
[1]
  KDR inhibition potency relative to KF1601: tenfold greater
[2]
  arterial obstruction: 33%
  heart failure: 9%
  thromboembolism: 6%
[3]; within six months
  patients achieving a major cytological response: 23%
[3]
  median overall survival: seven
